Measured values reported in patent EP3046573B1, “AMYLIN ANALOGUES” (Zealand Pharma A/S, priority 2013, dated 2015).
Read-outs that look alike come from different tables or passages of the source. Numbered stars: 1 amine (or outer) side, 2 acyl side, 3 side chain; on linkers, the order of the positions; unused ones are H or OH. Bridge positions count the residues as written; N and C are the ends. Square brackets hold non-standard residues; d marks the D form. Peptide text beside a SMILES is read from it. * marks the point of attachment. C20 diacid = O=C(O)CCCCCCCCCCCCCCCCCCC(=O)*; γGlu = O=C(O)[C@H](CCC(=O)[*:2])N[*:1]; NMeY = CN[C@@H](Cc1ccc(O)cc1)C(=O)O; Palmitoyl = CCCCCCCCCCCCCCCC(=O)*; NMeI = CC[C@H](C)[C@H](NC)C(=O)O; Sar = CNCC(=O)O

Tests used:
[1] = Solubility assessment (turbidity absorbance at 325 nm); assay type: physicochemical; conditions: stock 2 mg/ml diluted 1:1, ambient temperature (typically 25°C), n=1; for Solubility, Acetate buffer pH 4: 100 mM acetate buffer pH 4.0; for Solubility, Acetate buffer pH 5: 100 mM acetate buffer pH 5.0; for Solubility, Histidine buffer pH 6: 100 mM histidine buffer pH 6.0; for Solubility, Histidine buffer pH 7: 100 mM histidine buffer pH 7.0; for Solubility, Phosphate buffer pH 6: 100 mM phosphate buffer pH 6.0; for Solubility, Phosphate buffer pH 7: 100 mM phosphate buffer pH 7.0; for Solubility, Phosphate buffer pH 7.5: 100 mM phosphate buffer pH7.5
Outline: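 Peptide stock (2 mg/ml) in water acidified to pH 2.5 with HCl was diluted 1:1 into 100 mM acetate (pH 4.0, 5.0), histidine (pH 6.0, 7.0) or phosphate (pH 6.0, 7.0, 7.5) buffer. A280 and A325 were read at about 25°C, n=1. A325 ≤ 0.02 meant solubility ≥ 1 mg/ml.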

[2] = target: T1, human calcitonin receptor (hCTR2) (Homo sapiens, UniProt P30988); test: hCTR2 assay: induction of cAMP (AlphaScreen cAMP Assay kit) in COS7 cells expressing hCTR2; assay type: cell-based
T1 construct: expressed in transfected cells
T1 sequence (P30988 25-474): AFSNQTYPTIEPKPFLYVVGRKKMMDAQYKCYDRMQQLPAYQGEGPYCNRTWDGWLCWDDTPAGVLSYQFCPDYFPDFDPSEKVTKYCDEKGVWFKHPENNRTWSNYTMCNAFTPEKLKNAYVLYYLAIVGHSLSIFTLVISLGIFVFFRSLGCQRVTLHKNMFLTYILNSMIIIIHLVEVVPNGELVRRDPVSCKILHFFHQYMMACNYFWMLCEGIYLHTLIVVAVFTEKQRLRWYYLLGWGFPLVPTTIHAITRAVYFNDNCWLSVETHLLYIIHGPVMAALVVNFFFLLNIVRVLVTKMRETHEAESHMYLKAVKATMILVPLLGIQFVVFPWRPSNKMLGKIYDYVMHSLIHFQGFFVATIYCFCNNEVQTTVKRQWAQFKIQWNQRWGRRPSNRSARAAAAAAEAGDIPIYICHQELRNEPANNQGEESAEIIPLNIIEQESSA
Outline: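 Functional agonism is measured as cAMP accumulation in a COS7 line stably transfected with hCTR2, lacking endogenous RAMPs. Peptides act for 15 min at 37° C with IBMX present, and curves are fitted with a 4-parameter logistic model.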

[3] = cAMP induction in COS7 cells expressing hCTR2, average of a minimum of 3 determinations, read-out: hCTR2 EC50

Row | SMILES | Solubility, Acetate buffer pH 4 [1] | Solubility, Acetate buffer pH 5 [1] | Solubility, Histidine buffer pH 6 [1] | Solubility, Histidine buffer pH 7 [1] | Solubility, Phosphate buffer pH 6 [1] | Solubility, Phosphate buffer pH 7 [1] | Solubility, Phosphate buffer pH 7.5 [1] | EC50 [2, 3] [nM] | EC50 [2] [nM]
1 | CC[C@H](C)[C@@H](C(=O)N[C@@H](CC(C)C)C(=O)N[C@@H](CO)C(=O)N[C@@H](CO)C(=O)N[C@H](C(=O)N[C@@H](CC(N)=O)C(=O)N[C@H](C(=O)NCC(=O)N[C@@H](CO)C(=O)N[C@@H](CC(N)=O)C(=O)N[C@H](C(=O)N(C)[C@@H](Cc1ccc(O)cc1)C(N)=O)[C@@H](C)O)C(C)C)[C@@H](C)O)N(C)C(=O)CN(C)C(=O)[C@H](Cc1ccccc1)NC(=O)[C@H](CC(N)=O)NC(=O)[C@H](CC(N)=O)NC(=O)[C@H](CO)NC(=O)[C@H](CO)NC(=O)[C@H](Cc1c[nH]cn1)NC(=O)[C@H](Cc1c[nH]cn1)NC(=O)[C@H](CC(C)C)NC(=O)[C@H](Cc1ccccc1)NC(=O)[C@H](CCC(=O)O)NC(=O)[C@H](C)NC(=O)[C@H](CC(C)C)NC(=O)[C@H](CCCNC(=N)N)NC(=O)[C@H](CCC(N)=O)NC(=O)[C@@H](NC(=O)[C@H](C)NC(=O)[C@@H]1CSSC[C@H](NC(=O)[C@H](CCCNC(=N)N)NC(=O)CC[C@H](NC(=O)CCCCCCCCCCCCCCCCCCC(=O)O)C(=O)O)C(=O)N[C@@H](CC(N)=O)C(=O)N[C@@H]([C@@H](C)O)C(=O)N[C@@H](C)C(=O)N[C@@H]([C@@H](C)O)C(=O)N1)[C@@H](C)O [Compound 62, [19CD]-isoGlu-RC()NTATC()ATQRLAEFLHHSSNNF-Gly(Me)-Ile(Me)-LSSTNVGSNT-Tyr(Me)-NH2] ({C20 diacid-γGlu}-RCNTATCATQRLAEFLHHSSNNF[Sar][NMeI]LSSTNVGSNT[NMeY]-NH2; disulfide 2-7) | SS (SS indicates solubility ≥ 1mg/ml) | II (II indicates solubility ≤ 1 mg/ml) | II (II indicates solubility ≤ 1 mg/ml) | II (II indicates solubility ≤ 1 mg/ml) | II (II indicates solubility ≤ 1 mg/ml) | II (II indicates solubility ≤ 1 mg/ml) | II (II indicates solubility ≤ 1 mg/ml) | 0.37 | 
2 | CC[C@H](C)[C@@H](C(=O)N[C@@H](CC(C)C)C(=O)N[C@@H](CO)C(=O)N[C@@H](CO)C(=O)N[C@H](C(=O)N[C@@H](CC(N)=O)C(=O)N[C@H](C(=O)NCC(=O)N[C@@H](CO)C(=O)N[C@@H](CC(N)=O)C(=O)N[C@H](C(=O)N1CCC[C@H]1C(N)=O)[C@@H](C)O)C(C)C)[C@@H](C)O)N(C)C(=O)CN(C)C(=O)[C@H](Cc1ccccc1)NC(=O)[C@H](CC(N)=O)NC(=O)[C@H](CC(N)=O)NC(=O)[C@H](CO)NC(=O)[C@H](CO)NC(=O)[C@H](CCCNC(=N)N)NC(=O)[C@H](Cc1c[nH]cn1)NC(=O)[C@H](CC(C)C)NC(=O)[C@H](Cc1ccccc1)NC(=O)[C@H](CCC(=O)O)NC(=O)[C@H](C)NC(=O)[C@H](CC(C)C)NC(=O)[C@H](CCCNC(=N)N)NC(=O)[C@H](CCC(N)=O)NC(=O)[C@@H](NC(=O)[C@H](C)NC(=O)[C@@H]1CSSC[C@H](NC(=O)[C@H](CCCCN)NC(=O)CC[C@H](NC(=O)CCCCCCCCCCCCCCCCCCC(=O)O)C(=O)O)C(=O)N[C@@H](CC(N)=O)C(=O)N[C@@H]([C@@H](C)O)C(=O)N[C@@H](C)C(=O)N[C@@H]([C@@H](C)O)C(=O)N1)[C@@H](C)O [Compound 58, [19CD]-isoGlu-KC()NTATC()ATQRLAEFLHRSSNNF-Gly(Me)-Ile(Me)-LSSTNVGSNTP-NH2] ({C20 diacid-γGlu}-KCNTATCATQRLAEFLHRSSNNF[Sar][NMeI]LSSTNVGSNTP-NH2; disulfide 2-7) | SS (SS indicates solubility ≥ 1mg/ml) | SS (SS indicates solubility ≥ 1mg/ml) | SS (SS indicates solubility ≥ 1mg/ml) | SS (SS indicates solubility ≥ 1mg/ml) | SS (SS indicates solubility ≥ 1mg/ml) | II (II indicates solubility ≤ 1 mg/ml) | SS (SS indicates solubility ≥ 1mg/ml) | 0.11 | 
3 | CC[C@H](C)[C@@H](C(=O)N[C@@H](CC(C)C)C(=O)N[C@@H](CO)C(=O)N[C@@H](CO)C(=O)N[C@H](C(=O)N[C@@H](CC(=O)O)C(=O)N[C@H](C(=O)NCC(=O)N[C@@H](CO)C(=O)N[C@@H](CCC(=O)O)C(=O)N[C@H](C(=O)N1CCC[C@H]1C(N)=O)[C@@H](C)O)C(C)C)[C@@H](C)O)N(C)C(=O)[C@H](C)NC(=O)CN(C)C(=O)[C@H](Cc1ccccc1)NC(=O)[C@H](CO)NC(=O)[C@H](CO)NC(=O)[C@H](CCCNC(=N)N)NC(=O)[C@H](Cc1c[nH]cn1)NC(=O)[C@H](CC(C)C)NC(=O)[C@H](Cc1ccccc1)NC(=O)[C@H](CCC(=O)O)NC(=O)[C@H](C)NC(=O)[C@H](CC(C)C)NC(=O)[C@H](CCCNC(=N)N)NC(=O)[C@H](CCC(N)=O)NC(=O)[C@@H](NC(=O)[C@H](C)NC(=O)[C@@H]1CSSC[C@H](NC(=O)[C@H](CCCNC(=N)N)NC(=O)CC[C@H](NC(=O)CCCCCCCCCCCCCCCCCCC(=O)O)C(=O)O)C(=O)N[C@@H](CC(N)=O)C(=O)N[C@@H]([C@@H](C)O)C(=O)N[C@@H](C)C(=O)N[C@@H]([C@@H](C)O)C(=O)N1)[C@@H](C)O [Compound 80, [19CD]-isoGlu-RC()NTATC()ATQRLAEFLHRSSF-Gly(Me)-A-Ile(Me)-LSSTDVGSETP-NH2] ({C20 diacid-γGlu}-RCNTATCATQRLAEFLHRSSF[Sar]A[NMeI]LSSTDVGSETP-NH2; disulfide 2-7) | SS (SS indicates solubility ≥ 1mg/ml) | SS (SS indicates solubility ≥ 1mg/ml) | II (II indicates solubility ≤ 1 mg/ml) | SS (SS indicates solubility ≥ 1mg/ml) | SS (SS indicates solubility ≥ 1mg/ml) | SS (SS indicates solubility ≥ 1mg/ml) | SS (SS indicates solubility ≥ 1mg/ml) | 0.062 | 
4 | CCCCCCCCCCCCCCCC(=O)N[C@@H](CCC(=O)N[C@@H](CCCNC(=N)N)C(=O)N[C@H]1CSSC[C@@H](C(=O)N[C@@H](C)C(=O)N[C@H](C(=O)N[C@@H](CCC(N)=O)C(=O)N[C@@H](CCCNC(=N)N)C(=O)N[C@@H](CC(C)C)C(=O)N[C@@H](C)C(=O)N[C@@H](CCC(=O)O)C(=O)N[C@@H](Cc2ccccc2)C(=O)N[C@@H](CC(C)C)C(=O)N[C@@H](Cc2c[nH]cn2)C(=O)N[C@@H](CCCNC(=N)N)C(=O)N[C@@H](CO)C(=O)N[C@@H](CO)C(=O)N[C@@H](CC(N)=O)C(=O)N[C@@H](CC(N)=O)C(=O)N[C@@H](Cc2ccccc2)C(=O)N(C)CC(=O)N[C@@H](C)C(=O)N(C)[C@H](C(=O)N[C@@H](CC(C)C)C(=O)N[C@@H](CO)C(=O)N[C@@H](CO)C(=O)N[C@H](C(=O)N[C@@H](CC(N)=O)C(=O)N[C@H](C(=O)NCC(=O)N[C@@H](CO)C(=O)N[C@@H](CC(N)=O)C(=O)N[C@H](C(=O)N2CCC[C@H]2C(N)=O)[C@@H](C)O)C(C)C)[C@@H](C)O)[C@@H](C)CC)[C@@H](C)O)NC(=O)[C@H]([C@@H](C)O)NC(=O)[C@H](C)NC(=O)[C@H]([C@@H](C)O)NC(=O)[C@H](CC(N)=O)NC1=O)C(=O)O [Compound 92, [Hexadecanoyl]-isoGlu-RC()NTATC()ATQRLAEFLHRSSNNF-Gly(Me)-A-Ile(Me)-LSSTNVGSNTP-NH2] ({Palmitoyl-γGlu}-RCNTATCATQRLAEFLHRSSNNF[Sar]A[NMeI]LSSTNVGSNTP-NH2; disulfide 2-7) | SS (SS indicates solubility ≥ 1mg/ml) | SS (SS indicates solubility ≥ 1mg/ml) | SS (SS indicates solubility ≥ 1mg/ml) | SS (SS indicates solubility ≥ 1mg/ml) | SS (SS indicates solubility ≥ 1mg/ml) | SS (SS indicates solubility ≥ 1mg/ml) | SS (SS indicates solubility ≥ 1mg/ml) |  | 0.054
